Measured values published in patent US5843902A, “Methods for treating prostate cancer with LHRH antagonists” (Praecis Pharmaceuticals Incorporated, priority 1996, dated 1998).
Square brackets hold non-standard residues; d marks the D form. Peptide text beside a SMILES is read from it. dPhe(4-Cl) = N[C@H](Cc1ccc(Cl)cc1)C(=O)O; d2Nal = N[C@H](Cc1ccc2ccccc2c1)C(=O)O; Lys(iPr) = CC(C)NCCCC[C@H](N)C(=O)O; NMeY = CN[C@@H](Cc1ccc(O)cc1)C(=O)O; d3Pal = N[C@H](Cc1cccnc1)C(=O)O

How the values were obtained:
[1] = tested on: adult male rats; assay: Plasma testosterone in adult male rats given PPI-149 by osmotic pump, then leuprolide; assay type: in vivo, rat; conditions: for prevention of leuprolide-induced testosterone surge / suppression of plasma testosterone levels: rat
Protocol: In a first series of experiments, adult male rats were first administered an LHRH antagonist having the structure:
(referred to herein as PPI-149). PPI-149 was administered via a subcutaneous continuous osmotic minipump (e.g., the Alzet pump, commercially available from Alza, Palo Alto, Calif.) at a dose of 15 μg/kg/day or 50 μg/kg/day. PPI-149 administration continued for a total of 15-28 days according to several different protocols. A second pump releasing leuprolide (trade name: Lupron®) at 1.8 μg/kg/day was implanted such that there was an overlap of 0, 1 or 7 days with the previously-implanted pump releasing PPI-149.
In the experiment shown in FIG. 1, PPI-149 (at 15 μg/kg/day or 50 μg/kg/day) was administered by osmotic pump for 28 days and then this pump was removed and a second pump administering leuprolide (at 1.8 μg/kg/day) was implanted such that there was no overlap between the antagonist and agonist treatment. Plasma testosterone levels (in ng/ml) were measured during the prolonged administration of PPI-149 alone and following replacement of the PPI-149 pump with the leuprolide pump.
In the experiment shown in FIG. 2, PPI-149 (at 50 μg/kg/day) was administered by osmotic pump for 15 days and then a second pump administering leuprolide (at 1.8 μg/kg/day) was implanted such that there was one day of overlap between the antagonist and agonist treatment (i.e., the first PPI-149-releasing pump was removed one day after implantation of the second leuprolide-releasing pump). Plasma testosterone levels were measured during the prolonged administration of PPI-149 alone and following removal of the PPI-149 pump when leuprolide alone was administered.
(§1) In the experiment shown in FIG. 3, PPI-149 (at 15 μg/kg/day or 50 μg/kg/day) was administered by osmotic pump for 28 days and then a second pump administering leuprolide (at 1.8 μg/kg/day) was implanted such that there was one day of overlap between the antagonist and agonist treatment (i.e., the first PPI-149-releasing pump was removed one day after implantation of the second leuprolide-releasing pump). Plasma testosterone levels were measured during the prolonged administration of PPI-149 alone and following removal of the PPI-149 pump when leuprolide alone was administered.
as §1, with “4,” for “3,”, “were seven days” for “was one day”, “(i e.,” for “(i.e.,”, “seven days” for “one day”

[2] = tested on: male cynomolgus monkeys; assay: Plasma testosterone in male cynomolgus monkeys given PPI-149 by osmotic pump, then depot leuprolide; assay type: in vivo; conditions: cynomolgus monkey
Protocol: In a second series of experiments, male cynomolgus monkeys were administered the LHRH antagonist PPI-149 via a subcutaneous continuous osmotic minipump (Alzet pump; Alza, Palo Alto, Calif.) at a dose of 0, 30, 100 or 300 μg/kg/day for a period of 28 days. On day 28, pumps were removed and monkeys were administered a single intramuscular dose of the depot, sustained-release (one-month) formulation of Luprong, equivalent to 0.16 mg/kg. This dose of leuprolide is 1.6 times that used in the treatment of prostate cancer in humans (0.1 mg/kg) and 3.2 times that used in the treatment of endometriosis (0.05 mg/kg).

[3] = PPI-149 50 μg/kg/day osmotic pump 15 days, one day overlap with leuprolide 1.8 μg/kg/day (FIG. 2)
[4] = PPI-149 50 μg/kg/day osmotic pump 28 days, one day overlap with leuprolide 1.8 μg/kg/day (FIG. 3)
[5] = PPI-149 50 μg/kg/day osmotic pump 28 days, seven days overlap with leuprolide 1.8 μg/kg/day (FIG. 4)
[6] = PPI-149 50 μg/kg/day s.c. osmotic pump 28 days, no overlap with leuprolide 1.8 μg/kg/day (FIG. 1)

In the case of `CC(=O)N[C@H](Cc1ccc2ccccc2c1)C(=O)N[C@H](Cc1ccc(Cl)cc1)C(=O)N[C@H](Cc1cccnc1)C(=O)N[C@@H](CO)C(=O)N(C)[C@@H](Cc1ccc(O)cc1)C(=O)N[C@H](CC(N)=O)C(=O)N[C@@H](CC(C)C)C(=O)N[C@@H](CCCCNC(C)C)C(=O)N1CCC[C@H]1C(=O)N[C@H](C)C(N)=O` [PPI-149, Ac-D-Nal^1,4-Cl-D-Phe^2, D-Pal^3, N-Me-Tyr^5, D-Asn^6, Lys(iPr)^8, D-Ala^10 -LHRH] (Ac-[d2Nal][dPhe(4-Cl)][d3Pal]S[NMeY][dN]L[Lys(iPr)]P[dA]-NH2), the “prevention of testosterone surge induced by LHRH agonist (summary of FIGS. 1-4)” value ([1]; adult male rats, PPI-149 50 μg/kg/day, 0, 1 or 7 days) is reported as “can prevent the testosterone surge induced by LHRH agonist administration”, the “prevention of leuprolide-induced testosterone surge” value [1, 3] is reported as “prevented the leuprolide-induced testosterone surge” and the “suppression of plasma testosterone levels” value (“suppression” for short) [1, 3] is reported as “suppressed plasma testosterone levels to castrate levels”. The “prevention of leuprolide-induced testosterone surge” value [1, 4] was “prevented the leuprolide-induced testosterone surge”, the “suppression” value [1, 4] was “suppressed plasma testosterone levels to castrate levels” and the “prevention of leuprolide-induced testosterone surge” value [1, 5] was “prevented the leuprolide-induced testosterone surge”. The “suppression” value [1, 5] was “suppressed plasma testosterone levels to castrate levels”, the “prevention of leuprolide-induced testosterone surge” value [1, 6] was “prevented the leuprolide-induced testosterone surge” and the “suppression” value [1, 6] was “suppressed plasma testosterone levels to castrate levels”. The “blockade of testosterone surge from depot Lupron” value ([2]; PPI-149 100 μg/kg/day 28 days, pump removed, single i.m. one-month depot leuprolide equivalent to 0.16 mg/kg on day 28 (FIG. 5)) was “complete blockade of the testosterone surge” and the “medical castration (plasma testosterone)” value ([2]; PPI-149 100 μg/kg/day s.c. osmotic pump 28 days (FIG. 5)) was “rapid, complete medical castration within the first two days of treatment”.
